Data on 2 compounds can be found in paper PMC5660193, “The antimalarial activity of the pantothenamide α-PanAm is via inhibition of pantothenate phosphorylation” (Scientific Reports, 2017).

Structures are written as SMILES. Positions count from the first letter of the chain named.

What all share (format): biochemical
The target in test [1] is T1, His6-CAB1 (Saccharomyces cerevisiae, UniProt Q04430).
T1 sequence (Q04430 1-367): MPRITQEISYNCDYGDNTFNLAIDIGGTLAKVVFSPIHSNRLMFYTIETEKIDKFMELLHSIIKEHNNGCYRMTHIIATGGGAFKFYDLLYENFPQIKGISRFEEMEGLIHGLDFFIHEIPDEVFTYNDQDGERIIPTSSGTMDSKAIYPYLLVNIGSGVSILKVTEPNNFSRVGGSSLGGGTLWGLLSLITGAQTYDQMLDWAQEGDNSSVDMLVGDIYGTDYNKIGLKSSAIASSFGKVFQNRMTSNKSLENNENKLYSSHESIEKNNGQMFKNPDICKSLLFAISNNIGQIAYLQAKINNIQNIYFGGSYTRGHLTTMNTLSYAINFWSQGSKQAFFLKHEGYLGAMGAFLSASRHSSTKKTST
The experiment in a line: Kinase-Glo luminescent assay. The note with it: 10 µM compound, 100 µM pantothenate, 100 µM ATP, 10 mM MgCl2, pH 7.4, room temperature. In general terms: Kinase-Glo measures the ATP left after a reaction by luminescence.

The next test concerns the target T2, Cab1p (yeast PanK) (Saccharomyces cerevisiae, UniProt Q04430).
T2 construct: gene CAB1; native untagged enzyme in cell-free extract of wild-type yeast
T2 sequence (Q04430 1-367): T1 sequence (Q04430 1-367)
The experiment in a line: radioactive pantothenate kinase assay, double reciprocal plots. The note with it: competitive with pantothenate; 2.5 mM ATP, 2.5 mM MgCl2, pH 7.4, 30 °C; enzyme source for Ki not restated (yeast extract as for Km).

Test [2] concerns the target T3, His6-CAB1 (Saccharomyces cerevisiae, UniProt Q04430, G351S).
T3 sequence (Q04430 1-367 G351S): T1 sequence (Q04430 1-367) with G351S
Kind of test: radioactive pantothenate kinase assay. The settings on record: 50 µM 14C-pantothenate, 2.5 mM ATP, 2.5 mM MgCl2, pH 7.4.

The target in test [3] is T1, His6-CAB1. The experiment in a line: Kinase-Glo ATP depletion and LC-MS of phosphorylated product. The settings on record: 10 µM compound, 100 µM ATP, no pantothenate, 10 mM MgCl2, pH 7.4, room temperature.
For test [4], the target named is T1, His6-CAB1. Kind of test: radioactive pantothenate kinase assay. The note with it: 50 µM 14C-pantothenate, 2.5 mM ATP, 2.5 mM MgCl2, pH 7.4.

On to `CSc1cccc(NC(=O)CCc2c(C)nc3c4cccnc4nn3c2C)c1` [NED7, 3-(2,4-dimethylpyrido-[2′,3′:3,4]pyrazolo[1,5-a]pyrimidin-3-yl)-N-(3-(methylthio)phenyl) propanamide], for which, on His6-CAB1 [1], the “inhibition at 10 μM” value is on record as “resulted in increased luciferase activity in the presence of Cab1”.

For `CC(CNC(=O)[C@H](O)C(C)(C)CO)C(=O)NCCc1ccccc1` (stereo partly drawn) [α-PanAm, (2 R)-2,4-dihydroxy-3,3-dimethyl-N-(2-methyl-3-oxo-3-(phenethylamino)propyl)butanamide], the Ki on Cab1p (yeast PanK) was 10.1 ± 0.85 µM. Moreover, the relative enzyme activity entry at His6-CAB1 [2] was “PanK activities of purified His6-CAB1 and His6-cab1^G351S mutant proteins were measured”; on His6-CAB1 [4], “PanK activities of purified His6-CAB1 and His6-cab1^G351S mutant proteins were measured”. In addition, on His6-CAB1 [3], the “Kinase-Glo ATP depletion and LC-MS of phosphorylated product” value is “detected the mass of phosphorylated α-PanAm (P-α-PanAm) in the presence of active Cab1”.

What is called Ki is the equilibrium dissociation constant of an inhibitor or competing ligand from its target.
